# According to patent US6960614B2, “Oxygenated esters of 4-lodo phenylamino benzhydroxamic acids” (Warner-Lambert Company, priority 2000, dated 2005):
# pIC50: −log10 of the molar value.
# Tests used:
# MEK = experiment: Cellular Assay for Measuring MEK Inhibition (inhibition of ERK phosphorylation in C26 cells, Western blot); type: cell-based, murine; settings: inhibition of ERK phosphorylation in murine colon 26 (C26) carcinoma cells; determined graphically from dose response curve
# Outline: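 Exponentially growing murine colon 26 (C26) carcinoma cells treated with varying compound concentrations at 37° C, then lysed. Western blot with antibody to dually phosphorylated ERK1/ERK2; blots stripped and re-probed for total ERK1/ERK2.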
# [1] = system: carrageenan thermal hyperalgesia response; experiment: Thermal hyperalgesia from intraplantar carrageenan in rats (Paw Withdrawal Latency); type: in vivo; settings: rat; for % Inhibition (1 hr): DOSE (PO) 10, 1 hour after drug administration; for % Inhibition (2 hr): DOSE (PO) 10, 2 hours after drug administration; for % Inhibition (3 hr): DOSE (PO) 10, 3 hours after drug administration
# Method: The analgesic activity of the compounds of the present invention was assessed by a test with rats. […] The rats were placed on a glass plate with illumination from a halogen lamp placed directly under the injected paw. The time (in seconds) from beginning illumination until the hindlimb was withdrawn from the glass was measured and scored as Paw Withdrawal Latency (PWL). Drug substances were given by oral gavage injection 21⁄2 hours after carrageenan injection to the footpad. PWL was measured prior to carrageenan injection, just prior to drug injection, and 1, 2 (and sometimes 3) hours after drug injection. Carrageenan (a polysaccharide extracted from seaweed) causes a sterile inflammation when injected under the skin. Injection into the rat footpad causes little or no spontaneous pain-related behavior but induces hyperalgesia (pain-related behavioral responses of greater intensity than expected) to peripheral thermal or mechanical stimuli. This hyperalgesia is maximal 2 to 3 hours after injection. Treatment of rats with various analgesic drugs reduces hyperalgesia measured in this way and is a conventional test for detection of analgesic activity in rats. […] Inhibition of the carrageenan thermal hyperalgesia response was determined by the difference between reduced PWL prior to drug and subsequent to drug treatment, and was expressed as percent inhibition of the response. […] Inhibition indicates and analgesic effect.
SMILES,pIC50 (MEK),% Inhibition (1 hr) [1] [%],% Inhibition (2 hr) [1] [%],melting point,% Inhibition (3 hr) [1] [%]
O=C(NOCC(O)CO)c1cc(Cl)c(F)c(F)c1Nc1ccc(I)cc1Cl (centres unmarked) [Example 34],9.00,39.6,61.5,152 to 154 °C,
"O=C(NOCC(O)CO)c1cc(Cl)c(F)c(F)c1Nc1ccc(I)cc1F (centres unmarked) [Example 41, 5-Chloro-N-(2,3-dihydroxy-propoxy)-3,4-difluoro-2-(2-fluoro-4-iodo-phenylamino)-benzamide]",9.14,26.7,61.0,152 to 155 °C,
O=C(NOC[C@@H](O)CO)c1cc(Cl)c(F)c(F)c1Nc1ccc(I)cc1F [Example 54],8.92,49,52.9,157 to 158 °C,29.6
"O=C(NOC[C@H](O)CO)c1ccc(F)c(F)c1Nc1ccc(Br)cc1F [Example 55, 2-(4-Bromo-2-fluoro-phenylamino)-N-((R)-2,3-dihydroxy-propoxy)-3,4-difluoro-benzamide]",8.35,36.8,60,52 °C,22
"CC(C)(O)C(O)CONC(=O)c1ccc(F)c(F)c1Nc1ccc(I)cc1F (centres unmarked) [Example 76, N-(2,3-Dihydroxy-3-methyl-butoxy)-3,4-difluoro-2-(2-fluoro-4-iodo-phenylamino)-benzamide]",8.22,,,180 to 183 °C,
"CNCCONC(=O)c1ccc(F)c(F)c1Nc1ccc(I)cc1C [Example 78, 3,4-Difluoro-2-(4-iodo-2-methyl-phenylamino)-N-(2-methylamino-ethoxy)-benzamide]",6.64,,,183 to 185 °C (dec.),
"O=C(c1ccc(F)c(F)c1Nc1ccc(I)cc1F)N1CC(O)CO1 (centres unmarked) [Example 83, [3,4-Difluoro-2-(2-fluoro-4-iodo-phenylamino)-phenyl]-(4-hydroxy-isoxazolidin-2-yl)-methanone]",7.39,,,122 to 124 °C,
"O=C(NOCC(O)CO)c1ccc(F)c(F)c1Nc1ccccc1F (centres unmarked) [Example 85, N-(2,3-Dihydroxy-propoxy)-3,4-difluoro-2-(2-fluoro-phenylamino)-benzamide]",7.27,,,113 to 115 °C,
